Results reported in patent US10251869B2, “Compositions and methods of inhibiting metallo-β-lactamases” (priority 2014, dated 2019).
In brackets after ≈: the same amount, converted by molar mass. Read-outs that look alike come from different tables or passages of the source.

What was measured:
[1] = system: E. coli DH10B pBCSK(−) producing VIM-24 (R228L); experiment: MIC by agar dilution, E. coli DH10B producing VIM-24; assay type: cell-based; conditions: Escherichia coli
Protocol: (§1) E. coli DH10B (Invitrogen, Carlsbad, Calif.) was used as a host strain for pBCSK (−) blaVIM-2, and to obtain a mutant library at position 228 by site-saturation mutagenesis, using the QuickChange XL Site-directed Mutagenesis Kit (Stratagene). Briefly, primers that capture all 19 variants at MBL position 228 were designed and PCR mutagenic reactions were conducted using pBCSK (−) blaVIM-2 as a template, and transformed into E. coli DH10B. Single colonies were selected for plasmid purification, and successful mutagenesis was verified by complete DNA sequencing.
(§2) The effect of Zn^2+ availability was also tested by agar dilution using MH supplemented with 250 μM ZnSO4 or 5 μM EDTA. Reported values are the mode of at least 3 biological replicates.

E. coli pBC SK(−) = experiment: MIC by agar dilution, E. coli DH10B host with empty phagemid; assay type: cell-based; conditions: Escherichia coli
Protocol: as §1, §2

[2] = system: E. coli DH10B pBCSK(−) producing VIM-2 (228R); experiment: MIC by agar dilution, E. coli DH10B producing VIM-2; assay type: cell-based
Source text: A forward primer containing the SacI restriction site and a reverse primer with the BamHI restriction site were used to amplify blaVIM-2 including the pET24a(+) ribosomal binding site, using plasmid pET-24a(+)-blaVIM-2 as template. The product was then subcloned into phagemid pBCSK (−) (Agilent (Santa Clara, Calif.)) using the above restriction sites, and thus placing the blaVIM-2 open reading frame under control of the lac promoter, to yield phagemid pBCSK (−) blaVIM-2.
as §1, §2

[3] = system: E. coli DH10B pBCSK(−) producing R228P variant; experiment: MIC by agar dilution, E. coli DH10B producing VIM-2 R228P; assay type: cell-based; conditions: Escherichia coli
Protocol: as §1, §2

VIM-2 [4] = biological target: T1, VIM-2 (Escherichia coli, UniProt Q5U7L7); experiment: Cefepime and ceftazidime hydrolysis in periplasm preparations, VIM-2; assay type: biochemical, P. aeruginosa; conditions: 800 μM cefepime or 400 μM ceftazidime, 25° C.
T1 construct: expressed in transfected cells; host or cells: E. coli DH10B carrying pBC SK(-) blaVIM-2; periplasmic extract by osmotic shock with chloroform
Protocol: (§3) Additionally, cefepime and ceftazidime hydrolysis were measured using periplasm preparations, as previously described. Briefly, periplasmic preparations of E. coli DH10B pBC SK (−) harboring blaVIM-2 or blaVIM-24 were obtained by osmotic shock with chloroform, and MBL production assessed by immunoblotting. Initial velocities of hydrolysis at high substrate concentrations (800 μM for cefepime and 400 μM for ceftazidime) were measured using equal amounts of both β-lactamases in 15 mM HEPES pH 7.5, 200 mM NaCl, supplemented with 50 μM ZnSO4, at 25° C.

[5] = system: E. coli DH10B pBCSK(−) producing R228M variant; experiment: MIC by agar dilution, E. coli DH10B producing VIM-2 R228M; assay type: cell-based; conditions: Escherichia coli
Protocol: as §1, §2

[6] = system: E. coli DH10B pBCSK(−) producing R228K variant; experiment: MIC by agar dilution, E. coli DH10B producing VIM-2 R228K; assay type: cell-based; conditions: Escherichia coli
Protocol: as §1, §2

VIM-24 [7] = biological target: T2, VIM-24 (Escherichia coli, UniProt Q5U7L7, R205L); experiment: Cefepime and ceftazidime hydrolysis in periplasm preparations, VIM-24; assay type: biochemical; conditions: 800 μM cefepime or 400 μM ceftazidime, 25° C.
T2 construct: which corresponds to cleavage after residues 20 (plus an additional Met residue on the N-terminus); made in house; host or cells: E. coli BL21(DE3) pLys, plasmid pET-24a(+)-blaVIM-24-S21
Protocol: as §3

[8] = system: E. coli DH10B pBCSK(−) producing R228Q variant; experiment: MIC by agar dilution, E. coli DH10B producing VIM-2 R228Q; assay type: cell-based; conditions: Escherichia coli
Protocol: as §1, §2

[9] = system: E. coli DH10B pBCSK(−) producing R228Y variant; experiment: MIC by agar dilution, E. coli DH10B producing VIM-2 R228Y; assay type: cell-based; conditions: Escherichia coli
Protocol: as §1, §2

VIM-24 [10] = biological target: T2, VIM-24; experiment: BTZ inhibition kinetics of nitrocefin hydrolysis by VIM-24; assay type: biochemical
Source text: (§4) Analysis of BTZ inhibition kinetics. Models involving one, or two-step slow binding were considered to analyze BTZ inhibition of NFC hydrolysis by VIM-2 and VIM-24 (Scheme 1).
(§5) Here E represents the free enzyme, and I the free inhibitor, EI is the final enzyme-inhibitor complex for a single step slow binding mechanism, and E*I is the enzyme-inhibitor complex formed after conformational changes in a two-step slow binding mechanism. Therefore, the dissociation constant for the EI complex (Ki), also called the inhibitor constant, is defined as Ki=k−1/k1; the dissociation constant for the E*I complex (Ki′) is defined as Ki′=k−2/k2, and the overall dissociation constant for the two-step mechanism (Ki*) is defined as Ki*=Ki/(1+([…])).
(§6) The Ki for each inhibitor was determined by direct competition assays under steady-state conditions. The initial velocity was measured in the presence of a constant concentration of enzyme (3 nM for VIM-2 and 4 nM for VIM-24) with increasing concentrations of inhibitor (5-60 μM) against a fixed concentration (5 x KM) of the indicator substrate, NCF, as previously described (42-44). The reactions were started by addition of VIM-2 or VIM-24 to substrate or to mixtures of substrate and inhibitor. Data were linearized by plotting inverse initial steady-state velocities (1/v0) against inhibitor concentration (I). Ki (observed) was determined by dividing the value for the y intercept by the slope of the line. Ki determinations were corrected to account for the affinity of NCF for the β-lactamase according to equation 3.
(§7) Measurements of association rate constants for inhibitor binding were carried out at 25° C. in 10 mM HEPES at pH 7.5 supplemented with 200 mM NaCl, 50 μM […] and 50 μg/ml BSA, in the presence of several concentrations of each compound. Reactions were then initiated by the addition of β-lactamase (3 nM VIM-2 or 4 nM VIM-24) to a mixture of 50 μM NCF and each BTZ without pre-incubation. Inhibitor association rate constants were estimated from linear extrapolation of the observed rate constant for inhibition (kobs), which was obtained by fitting progress curves of NFC hydrolysis to Eq. 4:
(§8) As previously described, the linear dependence of kobs vs. [I] at limiting I concentration approximates second-order rate constant k2/Ki. The observed second-order rate constant also includes an adjustment for competition between inhibitor and substrate binding (Eq. 5).
(§9) Also, vs calculated from the progress curves of NCF hydrolysis for each concentration of inhibitor were used to determine Ki*, according to the relationship shown in equation 6 (5). The value reported is the mean of three velocities±SD.
(§10) To further test the time-dependent inhibition mechanism of inhibitor binding, assays using dilutions of pre-formed complexes were performed. For these experiments, 1 μM of enzyme was incubated with varying concentrations of the inhibitor which allowed for complete inactivation of the enzyme during the 5 min incubation at 25° C. The reactions were then diluted 2,000-fold in 10 mM HEPES at pH 7.5 supplemented with 200 mM NaCl, 50 μM […] and 50 μg/ml BSA, which contained 50 μM NCF. Reactivation of the enzyme based on NCF hydrolysis was monitored over time. Control reaction with the free enzyme was performed in the same fashion.

VIM-2 [11] = biological target: T3, VIM-2 (Pseudomonas aeruginosa, UniProt Q9K2N0); experiment: BTZ inhibition kinetics of nitrocefin hydrolysis by VIM-2; assay type: biochemical, P. aeruginosa
T3 construct: made in house; host or cells: E. coli BL21(DE3) pLys, plasmid pET-24a(+)-blaVIM-2-S21
Source text: as §4, §5, §6, §7, §8, §9, §10

MBLs = experiment: Assays in solution after prolonged exposure to oxidative conditions; assay type: biochemical; conditions: data not shown
[12] = MHA supplemented with 5 μM EDTA, read-out: MIC
[13] = MHA supplemented with 250 μM Zn2+, read-out: MIC
[14] = MHA supplemented with 5 μM EDTA
[15] = MHA supplemented with 250 μM Zn2+
[16] = Escherichia coli, MHA supplemented with 5 μM EDTA, read-out: MIC
[17] = Escherichia coli, MHA supplemented with 250 μM Zn2+, read-out: MIC
[18] = rate constant for breakdown of E*I
[19] = rate constant for formation of E*I

Structure (SMILES) | MIC ([1]; MHA) | MIC [1, 12] | MIC [1, 13] | MIC (E. coli pBC SK(−); MHA) | MIC (E. coli pBC SK(−); [14]) | MIC (E. coli pBC SK(−); [15]) | MIC ([2]; Escherichia coli, MHA) | MIC [2, 16] | MIC [2, 17] | MIC ([3]; MHA) | MIC [3, 14] | MIC [3, 15] | rate of hydrolysis (initial velocity) in periplasma (VIM-2 [4]) | MIC ([5]; MHA) | MIC [5, 14] | MIC [5, 15] | MIC ([6]; MHA) | MIC [6, 14] | MIC [6, 15] | rate of hydrolysis (initial velocity) in periplasma (VIM-24 [7]) | further results
CC(C)(O/N=C(\C(=O)N[C@@H]1C(=O)N2C(C(=O)[O-])=C(C[n+]3ccccc3)CS[C@H]12)c1csc(N)n1)C(=O)O [Ceftazidime] | 64 µg/mL (≈ 117 µM) | 32 µg/mL (≈ 58.5 µM) | 128 µg/mL (≈ 234 µM) | 0.06 µg/mL (≈ 0.11 µM) | ≤ 1 µg/mL | ≤ 1 µg/mL | 16 µg/mL (≈ 29.3 µM) | 16 µg/mL (≈ 29.3 µM) | 32 µg/mL (≈ 58.5 µM) | 1 µg/mL (≈ 1.83 µM) | ≤ 1 µg/mL | 4 µg/mL (≈ 7.32 µM) | measurable rates of hydrolysis were not obtained | 128 µg/mL (≈ 234 µM) | 64 µg/mL (≈ 117 µM) | 256 µg/mL (≈ 468 µM) | 1 µg/mL (≈ 1.83 µM) | ≤ 1 µg/mL | ≤ 1 µg/mL | 4e-07 M/s | MIC ([8]; MHA): 128 µg/mL (≈ 234 µM); MIC [8, 14]: 128 µg/mL (≈ 234 µM); MIC [8, 15]: 512 µg/mL (≈ 937 µM); MIC ([9]; MHA): 64 µg/mL (≈ 117 µM); MIC [9, 14]: 64 µg/mL (≈ 117 µM); MIC [9, 15]: 128 µg/mL (≈ 234 µM)
CO/N=C(\C(=O)N[C@@H]1C(=O)N2C(C(=O)[O-])=C(C[N+]3(C)CCCC3)CS[C@H]12)c1csc(N)n1 [Cefepime] | 4 µg/mL (≈ 8.32 µM) | 4 µg/mL (≈ 8.32 µM) | 4 µg/mL (≈ 8.32 µM) | 0.03 µg/mL (≈ 0.0624 µM) | ≤ 0.25 µg/mL | ≤ 0.25 µg/mL | ≤ 0.5 µg/mL | 0.5 µg/mL (≈ 1.04 µM) | 0.5 µg/mL (≈ 1.04 µM) | 0.25 µg/mL (≈ 0.52 µM) | ≤ 0.25 µg/mL | 0.5 µg/mL (≈ 1.04 µM) | 2.9×10^−7 M^s−1 | 2 µg/mL (≈ 4.16 µM) | 4 µg/mL (≈ 8.32 µM) | 2 µg/mL (≈ 4.16 µM) | 0.5 µg/mL (≈ 1.04 µM) | ≤ 0.25 µg/mL | ≤ 0.25 µg/mL | 5.3e-07 M/s | MIC ([2]; MHA): 0.5 µg/mL (≈ 1.04 µM); MIC ([8]; MHA): 16 µg/mL (≈ 33.3 µM); MIC [8, 14]: 16 µg/mL (≈ 33.3 µM); MIC [8, 15]: 32 µg/mL (≈ 66.6 µM); MIC ([9]; MHA): 8 µg/mL (≈ 16.6 µM); MIC [9, 14]: 8 µg/mL (≈ 16.6 µM); MIC [9, 15]: 8 µg/mL (≈ 16.6 µM)
O=C(O)[C@@H]1CS[C@H]2CS[C@H](CS)N21 [L-CS319] | – | – | – | – | – | – | – | – | – | – | – | – | – | – | – | – | – | – | – | – | k−2 (VIM-24 [10]; [18]): 0.001 ± 1 × 10^−3 s^−1; k2 (VIM-24 [10]; [19]): 0.06 ± 2 × 10^−3 s−1; Ki (VIM-2 [11]; initial complex EI, NCF as reporter substrate): 3.7 ± 0.3 µM; Ki (VIM-2 [11]; overall dissociation constant of two-step mechanism (E*I)): 0.04 ± 0.01 µM; k−2 (VIM-2 [11]; [18]): 0.0003 ± 1 × 10^−4 s^−1; k2 (VIM-2 [11]; [19]): 0.03 ± 1 × 10^−3 s^−1; inhibitory activity towards MBLs after prolonged exposure to oxidative conditions (MBLs): abolishes the inhibitory activity
